Data from ChEMBL document CHEMBL4507267 (2021).

Assays:
[1] = biological target: ALK tyrosine kinase receptor (Homo sapiens) (UniProt Q9UM73); conditions: Compound concentration 1000.0 nM
[2] = biological target: Uncharacterized serine/threonine-protein kinase SBK3 (Homo sapiens) (UniProt P0C264); conditions: Compound concentration 1000.0 nM
[3] = biological target: Serine/threonine-protein kinase PRP4 homolog (Homo sapiens) (UniProt Q13523); conditions: Compound concentration 1000.0 nM
[4] = test system: Mast/stem cell growth factor receptor Kit (Homo sapiens), P10721 [A829P]; conditions: Compound concentration 1000.0 nM
[5] = biological target: Casein kinase II subunit alpha (Homo sapiens) (UniProt P68400); conditions: Compound concentration 1000.0 nM
[6] = biological target: Serine/threonine-protein kinase 32C (Homo sapiens) (UniProt Q86UX6); conditions: Compound concentration 1000.0 nM
Serine/threonine-protein kinase 32C (Homo sapiens), sequence (Q86UX6 whole entry): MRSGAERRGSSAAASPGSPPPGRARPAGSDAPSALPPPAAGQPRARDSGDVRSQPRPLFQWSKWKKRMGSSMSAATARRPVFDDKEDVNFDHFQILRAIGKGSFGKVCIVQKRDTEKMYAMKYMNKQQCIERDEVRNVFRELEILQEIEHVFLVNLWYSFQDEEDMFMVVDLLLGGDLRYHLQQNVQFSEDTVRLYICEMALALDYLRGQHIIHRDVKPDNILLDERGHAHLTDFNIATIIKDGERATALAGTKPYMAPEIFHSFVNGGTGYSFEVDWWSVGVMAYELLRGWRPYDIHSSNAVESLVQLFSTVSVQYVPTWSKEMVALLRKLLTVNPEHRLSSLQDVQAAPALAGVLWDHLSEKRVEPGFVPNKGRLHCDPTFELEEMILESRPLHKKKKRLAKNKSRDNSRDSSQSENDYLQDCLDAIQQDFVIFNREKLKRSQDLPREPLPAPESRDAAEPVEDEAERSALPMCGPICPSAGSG

[7] = test system: Epidermal growth factor receptor (Homo sapiens), P00533 [L861Q]; conditions: Compound concentration 1000.0 nM
[8] = biological target: Calcium-dependent protein kinase 1 (Plasmodium falciparum) (UniProt P62344); conditions: Compound concentration 1000.0 nM
[9] = biological target: Mitogen-activated protein kinase kinase kinase kinase 5 (Homo sapiens) (UniProt Q9Y4K4); conditions: Compound concentration 1000.0 nM
[10] = biological target: Testis-specific serine/threonine-protein kinase 3 (Homo sapiens) (UniProt Q96PN8); conditions: Compound concentration 1000.0 nM
Testis-specific serine/threonine-protein kinase 3 (Homo sapiens), sequence (Q96PN8 whole entry): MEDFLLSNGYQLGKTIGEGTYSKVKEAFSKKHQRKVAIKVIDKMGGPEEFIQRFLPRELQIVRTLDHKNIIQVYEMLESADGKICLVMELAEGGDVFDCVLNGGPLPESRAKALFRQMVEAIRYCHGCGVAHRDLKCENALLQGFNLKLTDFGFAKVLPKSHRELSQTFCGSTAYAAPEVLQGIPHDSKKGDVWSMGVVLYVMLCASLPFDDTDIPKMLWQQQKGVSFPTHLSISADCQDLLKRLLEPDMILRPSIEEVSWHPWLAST

[11] = biological target: Homeodomain-interacting protein kinase 2 (Homo sapiens) (UniProt Q9H2X6); conditions: Compound concentration 1000.0 nM
[12] = biological target: Dual specificity tyrosine-phosphorylation-regulated kinase 1B (Homo sapiens) (UniProt Q9Y463); conditions: Compound concentration 1000.0 nM
[13] = biological target: Phosphatidylinositol 4,5-bisphosphate 3-kinase catalytic subunit gamma isoform (Homo sapiens) (UniProt P48736); conditions: Compound concentration 1000.0 nM
Phosphatidylinositol 4,5-bisphosphate 3-kinase catalytic subunit gamma isoform (Homo sapiens), sequence (P48736 whole entry, looked up, canonical isoform): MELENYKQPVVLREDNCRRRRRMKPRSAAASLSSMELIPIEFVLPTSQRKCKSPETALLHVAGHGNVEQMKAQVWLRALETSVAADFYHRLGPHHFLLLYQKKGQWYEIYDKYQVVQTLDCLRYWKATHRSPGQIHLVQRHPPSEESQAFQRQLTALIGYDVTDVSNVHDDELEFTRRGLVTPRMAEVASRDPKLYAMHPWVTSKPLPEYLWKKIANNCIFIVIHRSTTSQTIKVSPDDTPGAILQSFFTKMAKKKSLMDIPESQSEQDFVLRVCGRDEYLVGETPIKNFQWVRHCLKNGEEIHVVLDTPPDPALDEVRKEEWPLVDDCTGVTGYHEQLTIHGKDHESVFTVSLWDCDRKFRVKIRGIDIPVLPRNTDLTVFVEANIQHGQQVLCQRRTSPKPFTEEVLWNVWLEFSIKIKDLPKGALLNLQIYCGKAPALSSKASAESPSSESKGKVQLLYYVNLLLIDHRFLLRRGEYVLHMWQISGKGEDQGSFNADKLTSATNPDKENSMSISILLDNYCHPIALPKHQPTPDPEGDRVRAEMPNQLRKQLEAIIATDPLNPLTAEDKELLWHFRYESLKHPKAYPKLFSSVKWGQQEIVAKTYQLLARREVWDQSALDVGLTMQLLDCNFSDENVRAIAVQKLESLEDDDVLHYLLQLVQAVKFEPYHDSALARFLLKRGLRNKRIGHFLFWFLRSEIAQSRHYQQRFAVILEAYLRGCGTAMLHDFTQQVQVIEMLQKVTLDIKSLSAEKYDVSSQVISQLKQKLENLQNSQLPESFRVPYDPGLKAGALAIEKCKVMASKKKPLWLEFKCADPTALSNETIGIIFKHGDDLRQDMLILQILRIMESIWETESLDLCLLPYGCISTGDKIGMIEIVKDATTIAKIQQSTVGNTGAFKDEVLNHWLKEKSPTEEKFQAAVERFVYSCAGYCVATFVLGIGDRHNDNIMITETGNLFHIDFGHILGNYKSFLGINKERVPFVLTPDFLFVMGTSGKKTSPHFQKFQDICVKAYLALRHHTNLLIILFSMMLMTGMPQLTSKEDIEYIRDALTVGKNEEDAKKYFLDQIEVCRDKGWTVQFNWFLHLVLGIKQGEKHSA

[14] = biological target: Ephrin type-A receptor 7 (Homo sapiens) (UniProt Q15375); conditions: Compound concentration 1000.0 nM
Ephrin type-A receptor 7 (Homo sapiens), sequence (Q15375 28-998 limits assumed): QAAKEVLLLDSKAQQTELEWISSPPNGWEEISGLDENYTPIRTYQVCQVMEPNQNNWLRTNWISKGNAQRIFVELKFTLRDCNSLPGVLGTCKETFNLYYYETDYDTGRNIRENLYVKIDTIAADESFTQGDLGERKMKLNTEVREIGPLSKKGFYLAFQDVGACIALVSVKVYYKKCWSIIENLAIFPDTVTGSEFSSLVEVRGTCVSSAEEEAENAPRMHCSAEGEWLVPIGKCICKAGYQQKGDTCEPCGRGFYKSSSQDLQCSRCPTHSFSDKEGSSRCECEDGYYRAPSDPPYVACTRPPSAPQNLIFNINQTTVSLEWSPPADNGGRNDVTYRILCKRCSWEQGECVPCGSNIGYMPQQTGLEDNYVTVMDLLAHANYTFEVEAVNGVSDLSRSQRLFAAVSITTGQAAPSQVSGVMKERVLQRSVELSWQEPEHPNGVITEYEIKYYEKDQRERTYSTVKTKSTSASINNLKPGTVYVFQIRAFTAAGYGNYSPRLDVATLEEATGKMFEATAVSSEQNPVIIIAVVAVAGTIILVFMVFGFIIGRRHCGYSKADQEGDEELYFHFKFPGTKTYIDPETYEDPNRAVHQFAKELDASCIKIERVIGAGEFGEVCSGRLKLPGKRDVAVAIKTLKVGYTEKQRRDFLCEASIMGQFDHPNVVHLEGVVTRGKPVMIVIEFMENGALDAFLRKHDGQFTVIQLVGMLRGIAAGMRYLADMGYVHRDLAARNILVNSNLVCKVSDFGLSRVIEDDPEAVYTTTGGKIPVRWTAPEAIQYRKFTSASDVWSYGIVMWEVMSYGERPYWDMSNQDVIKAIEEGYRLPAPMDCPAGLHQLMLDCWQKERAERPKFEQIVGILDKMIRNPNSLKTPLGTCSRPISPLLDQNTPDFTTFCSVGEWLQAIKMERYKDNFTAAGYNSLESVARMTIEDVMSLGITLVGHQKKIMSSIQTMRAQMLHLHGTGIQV

[15] = biological target: Alpha-1A adrenergic receptor (Homo sapiens) (UniProt P35348); conditions: Compound concentration 10.0 uM
Alpha-1A adrenergic receptor (Homo sapiens), sequence (P35348 whole entry): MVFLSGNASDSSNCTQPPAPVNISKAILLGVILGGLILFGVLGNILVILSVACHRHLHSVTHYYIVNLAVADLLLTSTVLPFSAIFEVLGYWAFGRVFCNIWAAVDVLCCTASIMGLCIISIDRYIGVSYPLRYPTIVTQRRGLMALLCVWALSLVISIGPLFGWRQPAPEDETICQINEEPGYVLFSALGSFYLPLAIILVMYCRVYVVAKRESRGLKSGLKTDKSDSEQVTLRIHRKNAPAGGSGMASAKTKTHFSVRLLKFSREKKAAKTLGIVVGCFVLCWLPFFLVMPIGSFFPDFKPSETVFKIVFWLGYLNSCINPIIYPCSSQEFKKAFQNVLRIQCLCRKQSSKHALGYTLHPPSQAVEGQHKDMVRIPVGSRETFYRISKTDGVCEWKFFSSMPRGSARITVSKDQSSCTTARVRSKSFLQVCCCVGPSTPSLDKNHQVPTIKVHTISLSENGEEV

[16] = biological target: Serine/threonine-protein kinase Nek5 (Homo sapiens) (UniProt Q6P3R8); conditions: Compound concentration 1000.0 nM
[17] = biological target: Serine/threonine-protein kinase TBK1 (Homo sapiens) (UniProt Q9UHD2); conditions: Compound concentration 1000.0 nM
[18] = biological target: Atypical kinase COQ8B, mitochondrial (Homo sapiens) (UniProt Q96D53); conditions: Compound concentration 1000.0 nM
[19] = biological target: STE20/SPS1-related proline-alanine-rich protein kinase (Homo sapiens) (UniProt Q9UEW8); conditions: Compound concentration 1000.0 nM
[20] = biological target: Death-associated protein kinase 1 (Homo sapiens) (UniProt P53355); conditions: Compound concentration 1000.0 nM
[21] = biological target: Serine/threonine-protein kinase D1 (Homo sapiens) (UniProt Q15139); conditions: Compound concentration 1000.0 nM
[22] = biological target: Proto-oncogene tyrosine-protein kinase receptor Ret (Homo sapiens) (UniProt P07949); conditions: Compound concentration 1000.0 nM
[23] = biological target: Tyrosine-protein kinase ABL1 (Homo sapiens) (UniProt P00519); conditions: Compound concentration 1000.0 nM
[24] = biological target: Tyrosine-protein kinase SYK (Homo sapiens) (UniProt P43405); conditions: Compound concentration 1000.0 nM
[25] = biological target: Protein kinase C iota type (Homo sapiens) (UniProt P41743); conditions: Compound concentration 1000.0 nM
[26] = biological target: Tyrosine-protein kinase Srms (Homo sapiens) (UniProt Q9H3Y6); conditions: Compound concentration 1000.0 nM
[27] = biological target: Serine/threonine-protein kinase 38-like (Homo sapiens) (UniProt Q9Y2H1); conditions: Compound concentration 1000.0 nM
[28] = biological target: Platelet-derived growth factor receptor beta (Homo sapiens) (UniProt P09619); conditions: Compound concentration 1000.0 nM
[29] = biological target: cAMP-dependent protein kinase catalytic subunit PRKX (Homo sapiens) (UniProt P51817); conditions: Compound concentration 1000.0 nM
[30] = test system: Phosphatidylinositol 4,5-bisphosphate 3-kinase catalytic subunit alpha isoform (Homo sapiens), P42336 [H1047Y]; conditions: Compound concentration 1000.0 nM
[31] = biological target: Cyclin-G-associated kinase (Homo sapiens) (UniProt O14976); conditions: Compound concentration 1000.0 nM
[32] = biological target: Mitogen-activated protein kinase kinase kinase 2 (Homo sapiens) (UniProt Q9Y2U5); conditions: Compound concentration 1000.0 nM
[33] = biological target: Serine/threonine-protein kinase Sgk1 (Homo sapiens) (UniProt O00141); conditions: Compound concentration 1000.0 nM
[34] = biological target: Ephrin type-A receptor 6 (Homo sapiens) (UniProt Q9UF33); conditions: Compound concentration 1000.0 nM
[35] = biological target: 5-hydroxytryptamine receptor 1B (Homo sapiens) (UniProt P28222); conditions: Compound concentration 10.0 uM
5-hydroxytryptamine receptor 1B (Homo sapiens), sequence (P28222 whole entry): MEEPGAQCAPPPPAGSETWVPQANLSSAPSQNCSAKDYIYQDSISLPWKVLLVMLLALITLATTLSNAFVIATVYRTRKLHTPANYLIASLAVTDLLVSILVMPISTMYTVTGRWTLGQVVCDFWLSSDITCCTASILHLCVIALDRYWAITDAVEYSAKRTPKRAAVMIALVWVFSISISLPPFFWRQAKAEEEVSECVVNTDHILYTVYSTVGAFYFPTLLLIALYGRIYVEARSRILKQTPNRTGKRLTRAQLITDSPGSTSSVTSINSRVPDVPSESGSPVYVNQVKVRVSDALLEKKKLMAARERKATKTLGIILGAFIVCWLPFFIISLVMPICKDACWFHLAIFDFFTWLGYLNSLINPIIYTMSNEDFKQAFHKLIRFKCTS

[36] = biological target: Muscarinic acetylcholine receptor M5 (Homo sapiens) (UniProt P08912); conditions: Compound concentration 10.0 uM
[37] = biological target: Protein-tyrosine kinase 6 (Homo sapiens) (UniProt Q13882); conditions: Compound concentration 1000.0 nM
[38] = biological target: Serine/threonine-protein kinase pim-2 (Homo sapiens) (UniProt Q9P1W9); conditions: Compound concentration 1000.0 nM
[39] = biological target: Non-receptor tyrosine-protein kinase TYK2 (Homo sapiens) (UniProt P29597); conditions: Compound concentration 1000.0 nM
[40] = biological target: Transient receptor potential cation channel subfamily M member 6 (Homo sapiens) (UniProt Q9BX84); conditions: Compound concentration 1000.0 nM
[41] = biological target: Serine/threonine-protein kinase Nek9 (Homo sapiens) (UniProt Q8TD19); conditions: Compound concentration 1000.0 nM
Serine/threonine-protein kinase Nek9 (Homo sapiens), sequence (Q8TD19 whole entry): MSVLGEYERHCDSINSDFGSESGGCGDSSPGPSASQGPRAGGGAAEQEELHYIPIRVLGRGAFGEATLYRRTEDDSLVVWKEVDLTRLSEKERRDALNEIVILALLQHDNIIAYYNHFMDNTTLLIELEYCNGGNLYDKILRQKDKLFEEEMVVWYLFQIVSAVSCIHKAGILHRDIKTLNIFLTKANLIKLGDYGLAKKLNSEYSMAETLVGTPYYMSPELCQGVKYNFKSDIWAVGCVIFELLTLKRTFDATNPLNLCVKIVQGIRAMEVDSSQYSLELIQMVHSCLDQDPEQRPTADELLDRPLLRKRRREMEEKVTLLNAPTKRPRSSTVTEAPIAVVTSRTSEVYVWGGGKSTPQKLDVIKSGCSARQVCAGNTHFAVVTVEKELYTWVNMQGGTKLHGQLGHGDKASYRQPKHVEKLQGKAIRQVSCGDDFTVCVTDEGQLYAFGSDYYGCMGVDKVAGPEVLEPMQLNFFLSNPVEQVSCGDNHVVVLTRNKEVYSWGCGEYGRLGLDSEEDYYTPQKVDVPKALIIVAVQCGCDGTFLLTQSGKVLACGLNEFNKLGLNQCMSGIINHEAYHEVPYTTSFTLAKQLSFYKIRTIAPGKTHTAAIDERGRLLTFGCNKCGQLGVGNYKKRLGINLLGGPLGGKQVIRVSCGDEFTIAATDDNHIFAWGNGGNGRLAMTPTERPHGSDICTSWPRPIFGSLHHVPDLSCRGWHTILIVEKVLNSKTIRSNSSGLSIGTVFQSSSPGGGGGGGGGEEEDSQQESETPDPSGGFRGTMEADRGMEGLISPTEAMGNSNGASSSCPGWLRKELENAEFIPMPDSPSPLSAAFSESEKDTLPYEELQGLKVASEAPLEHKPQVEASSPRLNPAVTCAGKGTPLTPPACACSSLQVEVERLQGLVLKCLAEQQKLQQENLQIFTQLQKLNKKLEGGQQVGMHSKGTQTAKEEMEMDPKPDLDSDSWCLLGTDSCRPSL

[42] = biological target: Serine/threonine-protein kinase ULK2 (Homo sapiens) (UniProt Q8IYT8); conditions: Compound concentration 1000.0 nM
[43] = biological target: Dual specificity mitogen-activated protein kinase kinase 7 (Homo sapiens) (UniProt O14733); conditions: Compound concentration 1000.0 nM
[44] = biological target: Serine/threonine-protein kinase SIK3 (Homo sapiens) (UniProt Q9Y2K2); conditions: Compound concentration 1000.0 nM
[45] = biological target: Tyrosine-protein kinase receptor Tie-1 (Homo sapiens) (UniProt P35590); conditions: Compound concentration 1000.0 nM

Uncharacterized serine/threonine-protein kinase SBK3 (Homo sapiens), sequence (P0C264 whole entry): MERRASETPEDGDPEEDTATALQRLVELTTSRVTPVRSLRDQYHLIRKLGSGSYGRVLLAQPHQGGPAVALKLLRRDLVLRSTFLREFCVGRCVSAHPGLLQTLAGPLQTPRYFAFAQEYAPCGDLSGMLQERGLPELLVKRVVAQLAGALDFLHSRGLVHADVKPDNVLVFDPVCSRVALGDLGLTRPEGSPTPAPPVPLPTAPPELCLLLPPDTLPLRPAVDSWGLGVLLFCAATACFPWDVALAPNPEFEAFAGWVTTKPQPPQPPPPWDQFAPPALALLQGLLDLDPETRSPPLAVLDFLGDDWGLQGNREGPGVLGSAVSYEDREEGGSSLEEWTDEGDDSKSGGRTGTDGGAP

Cc1c(NC(=O)c2cc(C(N)=O)nc3cc(F)ccc23)c(C(F)(F)F)nn1Cc1ccc(C(C)(C)C)cc1 [BAY-588]
inactive: residual activity [1] 96% | residual activity [2] 100% | residual activity [3] 73% | residual activity [4] 98% | residual activity [5] 100% | residual activity [6] 100% | residual activity [7] 65% | residual activity [8] 100% | residual activity [9] 92% | residual activity [10] 100% | residual activity [11] 100% | residual activity [12] 81% | residual activity [13] 100% | residual activity [14] 100% | inhibition [15] 5.25% | residual activity [16] 100% | residual activity [17] 95% | residual activity [18] 70% | residual activity [19] 100% | residual activity [20] 100% | residual activity [21] 100% | residual activity [22] 100% | residual activity [23] 100% | residual activity [24] 90% | residual activity [25] 98% | residual activity [26] 100% | residual activity [27] 89% | residual activity [28] 76% | residual activity [29] 94% | residual activity [30] 89% | residual activity [31] 98% | residual activity [32] 100% | residual activity [33] 100% | residual activity [34] 100% | inhibition [35] -7.67% | inhibition [36] 7.12% | residual activity [37] 100% | residual activity [38] 100% | residual activity [39] 100% | residual activity [40] 100% | residual activity [41] 100% | residual activity [42] 100% | residual activity [43] 100% | residual activity [44] 91% | residual activity [45] 100%

Cc1c(NC(=O)c2cc(C(N)=O)nc3cc(F)ccc23)c(C(F)(F)F)nn1Cc1ccc(C#N)cc1 [BAY-876]
inactive: residual activity [1] 87% | residual activity [2] 100% | residual activity [3] 93% | residual activity [4] 64% | residual activity [5] 78% | residual activity [6] 69% | residual activity [7] 67% | residual activity [8] 92% | residual activity [9] 74% | residual activity [10] 82% | residual activity [11] 83% | residual activity [12] 87% | residual activity [13] 80% | residual activity [14] 86% | inhibition [15] -5.75% | residual activity [16] 100% | residual activity [17] 70% | residual activity [18] 80% | residual activity [19] 94% | residual activity [20] 86% | residual activity [21] 100% | residual activity [22] 94% | residual activity [23] 78% | residual activity [24] 95% | residual activity [25] 84% | residual activity [26] 62% | residual activity [27] 100% | residual activity [28] 87% | residual activity [29] 92% | residual activity [30] 86% | residual activity [31] 95% | residual activity [32] 85% | residual activity [33] 90% | residual activity [34] 87% | inhibition [35] 2.6% | inhibition [36] 4.88% | residual activity [37] 100% | residual activity [38] 94% | residual activity [39] 83% | residual activity [40] 87% | residual activity [41] 95% | residual activity [42] 81% | residual activity [43] 79% | residual activity [44] 81% | residual activity [45] 81%
